Measurements reported in ChEMBL document CHEMBL4680118, “Cerpegin-derived furo[3,4-c]pyridine-3,4(1H,5H)-diones enhance cellular response to interferons by de novo pyrimidine biosynthesis inhibition” (Eur J Med Chem, 2020).
The source made the active and inactive calls. The rule behind the calls is not given here.

Target: T1, Dihydroorotate dehydrogenase (quinone), mitochondrial (Homo sapiens, UniProt Q02127)
Experiment: Inhibition of DHODH in human HEK-293 cells transfected with ISRE-luciferase reporter gene assessed as increase in IFN-alpha mediated cellular response at 6 to 178 uM after 24 hrs by luciferase reporter gene assay
Type: cell-based
Details: HEK293, dose 6-178 µM

T1 sequence (Q02127 whole entry): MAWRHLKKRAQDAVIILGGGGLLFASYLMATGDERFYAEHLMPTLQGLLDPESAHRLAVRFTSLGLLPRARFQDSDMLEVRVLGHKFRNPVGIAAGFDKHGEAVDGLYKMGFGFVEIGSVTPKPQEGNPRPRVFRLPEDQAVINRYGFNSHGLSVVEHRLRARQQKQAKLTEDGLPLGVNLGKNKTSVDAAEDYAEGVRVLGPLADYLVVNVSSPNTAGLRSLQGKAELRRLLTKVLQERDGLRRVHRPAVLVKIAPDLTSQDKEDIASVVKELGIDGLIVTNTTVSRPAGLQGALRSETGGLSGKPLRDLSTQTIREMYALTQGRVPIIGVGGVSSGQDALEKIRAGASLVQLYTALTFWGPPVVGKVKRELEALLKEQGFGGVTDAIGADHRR

Row | Activity | Compound
1 | Active | CC1(c2ccccc2)OC(=O)c2c1ccn(C1CC1)c2=O (stereo not given)

Target: T1, Dihydroorotate dehydrogenase (quinone), mitochondrial
Experiment: Inhibition of DHODH in human HEK-293 cells transfected with ISRE-luciferase reporter gene assessed as increase in IFN-alpha mediated cellular response after 24 hrs by luciferase reporter gene assay
Details: read-out: EC50

Row | EC50 [µM] | Compound
2 | 27 | CC1(c2ccccc2)OC(=O)c2c1ccn(C1CC1)c2=O (stereo not given)

Same assay, conditions: read-out: pEC50 (converted)

Row | Compound | EC50 [µM]
3 | CC(C)n1ccc2c(c1=O)C(=O)OC21CCCCC1 | > 158
4 | CC1(C)OC(=O)c2c1ccnc2O | > 158
5 | O=C1OC2(CCCCC2)c2ccn(CC3CC3)c(=O)c21 | > 158
6 | Cn1ccc2c(c1=O)C(=O)OC21CCCCC1 | > 158
7 | O=C1OC2(CCCCC2)c2ccnc(O)c21 | > 158
8 | CC1=C(C(=O)NC2CC2)C(=O)OC12CCCCC2 | > 158

Continued, values first:

Row | EC50 [µM] | Compound
9 | > 158 | CCC1(C)OC(=O)c2c1ccn(C1CC1)c2=O (stereo not given)
10 | 52.5 | O=C1OC2(CCCC2)c2ccn(C3CC3)c(=O)c21
11 | > 158 | CC1(C)OC(=O)c2c1ccn(C1CC1)c2=O
12 | > 158 | O=C1OC2(CCCCC2)c2ccn(C3CCCCC3)c(=O)c21
13 | > 158 | O=C1OC2(CCCCC2)c2ccn(C3CCCC3)c(=O)c21
14 | > 158 | O=C1OC2(CCCCC2)c2ccn(C3CCC3)c(=O)c21
15 | > 158 | CCC1(CC)OC(=O)c2c1ccn(C1CC1)c2=O
